According to PubChem BioAssay (NCI):
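Cultured in 96-well plates, cells were exposed to test compound for 48 hours across five concentrations. TGI: total growth inhibition.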

What was measured:
Test in all cases: inhibition of tumour cell growth, NCI panel, 48 h
HOP-62 NSCLC = test system: HOP-62 NSCLC
SNB-78 CNS = test system: SNB-78 CNS
M14 melanoma = test system: M14 melanoma
SK-OV-3 ovarian = test system: SK-OV-3 ovarian
HCC-2998 colon = test system: HCC-2998 colon
HT29 colon = test system: HT29 colon
MDA-MB-435 = test system: MDA-MB-435
RPMI-8226 leukemia = test system: RPMI-8226 leukemia
DMS 114 small cell lung = test system: DMS 114 small cell lung
UACC-257 melanoma = test system: UACC-257 melanoma
NCI-H23 lung = test system: NCI-H23 lung
UO-31 renal = test system: UO-31 renal
MALME-3M melanoma = test system: MALME-3M melanoma
XF 498 CNS = test system: XF 498 CNS
IGROV1 ovarian = test system: IGROV1 ovarian
KM12 colon = test system: KM12 colon
TK-10 renal = test system: TK-10 renal
COLO 205 colon = test system: COLO 205 colon
OVCAR-4 ovarian = test system: OVCAR-4 ovarian
LXFL 529 NSCLC = test system: LXFL 529 NSCLC
HOP-92 NSCLC = test system: HOP-92 NSCLC
U251 CNS = test system: U251 CNS
RXF 393 renal = test system: RXF 393 renal
DU-145 prostate = test system: DU-145 prostate
SF-295 CNS = test system: SF-295 CNS
PC-3 prostate = test system: PC-3 prostate
CCRF-CEM leukemia = test system: CCRF-CEM leukemia
NCI-H460 lung = test system: NCI-H460 lung
786-0 renal = test system: 786-0 renal
KM20L2 colon = test system: KM20L2 colon
A549 NSCLC = test system: A549 NSCLC
BT-549 breast = test system: BT-549 breast
HCT-116 colon = test system: HCT-116 colon
OVCAR-8 ovarian = test system: OVCAR-8 ovarian
MDA-N = test system: MDA-N
MDA-MB-231 breast = test system: MDA-MB-231 breast
HOP-18 NSCLC = test system: HOP-18 NSCLC
CAKI-1 renal = test system: CAKI-1 renal
DMS 273 small cell lung = test system: DMS 273 small cell lung
DLD-1 colon = test system: DLD-1 colon
NCI-H226 lung = test system: NCI-H226 lung
HCT-15 colon = test system: HCT-15 colon
SNB-75 CNS = test system: SNB-75 CNS
UACC-62 melanoma = test system: UACC-62 melanoma
OVCAR-3 ovarian = test system: OVCAR-3 ovarian
MCF7 breast = test system: MCF7 breast
SR leukemia = test system: SR leukemia
HS 578T breast = test system: HS 578T breast
OVCAR-5 ovarian = test system: OVCAR-5 ovarian
SK-MEL-28 melanoma = test system: SK-MEL-28 melanoma
SW-620 colon = test system: SW-620 colon
EKVX NSCLC = test system: EKVX NSCLC
NCI-H522 lung = test system: NCI-H522 lung
A498 renal = test system: A498 renal
K-562 leukemia = test system: K-562 leukemia
M19-MEL melanoma = test system: M19-MEL melanoma
MOLT-4 leukemia = test system: MOLT-4 leukemia
HL-60(TB) leukemia = test system: HL-60(TB) leukemia
SK-MEL-5 melanoma = test system: SK-MEL-5 melanoma
SF-539 CNS = test system: SF-539 CNS
SNB-19 CNS = test system: SNB-19 CNS
LOX IMVI melanoma = test system: LOX IMVI melanoma
SK-MEL-2 melanoma = test system: SK-MEL-2 melanoma
T-47D breast = test system: T-47D breast
SF-268 CNS = test system: SF-268 CNS
ACHN renal = test system: ACHN renal
SN12C renal = test system: SN12C renal
NCI/ADR-RES ovarian = test system: NCI/ADR-RES ovarian
RXF-631 renal = test system: RXF-631 renal

CS(=O)(=O)OCCN(CCOS(C)(=O)=O)c1ccc(C=Nc2ccc(-c3csc(COc4ccccc4)n3)cc2)cc1
TGI (HOP-62 NSCLC): 10.1 µM | TGI (SNB-78 CNS): 66.4 µM | TGI (M14 melanoma): 28.1 µM | TGI (SK-OV-3 ovarian): 12.2 µM | TGI (HCC-2998 colon): 7.59 µM | TGI (HT29 colon): 23.6 µM | TGI (MDA-MB-435): 31.6 µM | TGI (RPMI-8226 leukemia): 67.5 µM | TGI (DMS 114 small cell lung): 23.4 µM | TGI (UACC-257 melanoma): 28.3 µM | TGI (NCI-H23 lung): 14 µM | TGI (UO-31 renal): 2.93 µM | TGI (MALME-3M melanoma): 28.8 µM | TGI (XF 498 CNS): 6.85 µM | TGI (IGROV1 ovarian): 32.8 µM | TGI (KM12 colon): 19.8 µM | TGI (TK-10 renal): 12.5 µM | TGI (COLO 205 colon): 6.98 µM | TGI (OVCAR-4 ovarian): 49.1 µM | TGI (LXFL 529 NSCLC): 25.3 µM | TGI (HOP-92 NSCLC): 35 µM | TGI (U251 CNS): 25 µM | TGI (RXF 393 renal): 1.85 µM | TGI (DU-145 prostate): 14.2 µM | TGI (SF-295 CNS): 17.8 µM | TGI (PC-3 prostate): 28.2 µM | TGI (CCRF-CEM leukemia): 35.6 µM | TGI (NCI-H460 lung): 2.1 µM | TGI (786-0 renal): 4.52 µM | TGI (KM20L2 colon): 14.7 µM | TGI (A549 NSCLC): 32.1 µM | TGI (BT-549 breast): 37 µM | TGI (HCT-116 colon): 27.6 µM | TGI (OVCAR-8 ovarian): 19.6 µM | TGI (MDA-N): 31 µM | TGI (MDA-MB-231 breast): 42.7 µM | TGI (HOP-18 NSCLC): 19.2 µM | TGI (CAKI-1 renal): 4.18 µM | TGI (DMS 273 small cell lung): 14.5 µM | TGI (DLD-1 colon): 29.3 µM | TGI (NCI-H226 lung): 18.2 µM | TGI (HCT-15 colon): 22.4 µM | TGI (SNB-75 CNS): 11.6 µM | TGI (UACC-62 melanoma): 19.8 µM | TGI (OVCAR-3 ovarian): 15.3 µM | TGI (MCF7 breast): 81.8 µM | TGI (SR leukemia): 15.5 µM | TGI (HS 578T breast): > 53.1 µM | TGI (OVCAR-5 ovarian): 12.6 µM | TGI (SK-MEL-28 melanoma): 25.5 µM | TGI (SW-620 colon): 52 µM | TGI (EKVX NSCLC): 16.5 µM | TGI (NCI-H522 lung): 0.868 µM | TGI (A498 renal): 7.48 µM | TGI (K-562 leukemia): > 76 µM | TGI (M19-MEL melanoma): 36 µM | TGI (MOLT-4 leukemia): 15.6 µM | TGI (HL-60(TB) leukemia): 16.2 µM | TGI (SK-MEL-5 melanoma): 23.9 µM | TGI (SF-539 CNS): 14.7 µM | TGI (SNB-19 CNS): 32.6 µM | TGI (LOX IMVI melanoma): 18.1 µM | TGI (SK-MEL-2 melanoma): 37.3 µM | TGI (T-47D breast): > 51.8 µM | TGI (SF-268 CNS): 14.6 µM | TGI (ACHN renal): 2.32 µM | TGI (SN12C renal): 18.7 µM | TGI (NCI/ADR-RES ovarian): 49.7 µM

O=C(Cc1ccccc1)NN1C(=O)C(Cl)C1c1ccc(Cl)cc1 (stereo not drawn)
TGI (HOP-62 NSCLC): > 100 µM | TGI (SNB-78 CNS): > 100 µM | TGI (M14 melanoma): > 100 µM | TGI (SK-OV-3 ovarian): > 100 µM | TGI (HCC-2998 colon): > 100 µM | TGI (HT29 colon): > 100 µM | TGI (RPMI-8226 leukemia): > 100 µM | TGI (DMS 114 small cell lung): > 100 µM | TGI (UACC-257 melanoma): > 100 µM | TGI (NCI-H23 lung): > 100 µM | TGI (UO-31 renal): > 100 µM | TGI (MALME-3M melanoma): > 100 µM | TGI (XF 498 CNS): > 100 µM | TGI (IGROV1 ovarian): > 100 µM | TGI (KM12 colon): > 100 µM | TGI (TK-10 renal): > 100 µM | TGI (COLO 205 colon): > 100 µM | TGI (OVCAR-4 ovarian): > 100 µM | TGI (LXFL 529 NSCLC): > 100 µM | TGI (U251 CNS): > 100 µM | TGI (RXF 393 renal): > 100 µM | TGI (SF-295 CNS): > 100 µM | TGI (CCRF-CEM leukemia): > 100 µM | TGI (NCI-H460 lung): > 100 µM | TGI (786-0 renal): > 100 µM | TGI (KM20L2 colon): > 100 µM | TGI (A549 NSCLC): > 100 µM | TGI (HCT-116 colon): > 100 µM | TGI (OVCAR-8 ovarian): > 100 µM | TGI (HOP-18 NSCLC): > 100 µM | TGI (CAKI-1 renal): > 100 µM | TGI (DMS 273 small cell lung): > 100 µM | TGI (DLD-1 colon): > 100 µM | TGI (NCI-H226 lung): > 100 µM | TGI (HCT-15 colon): > 100 µM | TGI (SNB-75 CNS): > 100 µM | TGI (UACC-62 melanoma): > 100 µM | TGI (OVCAR-3 ovarian): > 100 µM | TGI (SR leukemia): > 100 µM | TGI (OVCAR-5 ovarian): > 100 µM | TGI (SK-MEL-28 melanoma): > 100 µM | TGI (SW-620 colon): > 100 µM | TGI (EKVX NSCLC): > 100 µM | TGI (NCI-H522 lung): > 100 µM | TGI (K-562 leukemia): > 100 µM | TGI (MOLT-4 leukemia): > 100 µM | TGI (HL-60(TB) leukemia): > 100 µM | TGI (SK-MEL-5 melanoma): > 100 µM | TGI (SNB-19 CNS): > 100 µM | TGI (LOX IMVI melanoma): > 100 µM | TGI (SK-MEL-2 melanoma): > 100 µM | TGI (SF-268 CNS): > 100 µM | TGI (ACHN renal): > 100 µM | TGI (SN12C renal): > 100 µM

COc1ccc(C(=O)C(C(=O)CCC(=O)Nc2ccc(Cl)c(Cl)c2)c2ccc(OC)cc2)cc1 (stereo not drawn)
TGI (HOP-62 NSCLC): > 100 µM | TGI (SNB-78 CNS): > 100 µM | TGI (M14 melanoma): > 100 µM | TGI (HCC-2998 colon): > 100 µM | TGI (HT29 colon): > 100 µM | TGI (RPMI-8226 leukemia): > 100 µM | TGI (DMS 114 small cell lung): > 100 µM | TGI (UACC-257 melanoma): > 100 µM | TGI (NCI-H23 lung): > 100 µM | TGI (UO-31 renal): > 100 µM | TGI (MALME-3M melanoma): > 100 µM | TGI (XF 498 CNS): > 100 µM | TGI (IGROV1 ovarian): > 100 µM | TGI (KM12 colon): > 100 µM | TGI (TK-10 renal): > 100 µM | TGI (OVCAR-4 ovarian): > 100 µM | TGI (LXFL 529 NSCLC): > 100 µM | TGI (HOP-92 NSCLC): > 100 µM | TGI (U251 CNS): > 100 µM | TGI (RXF 393 renal): > 100 µM | TGI (SF-295 CNS): > 100 µM | TGI (CCRF-CEM leukemia): > 100 µM | TGI (NCI-H460 lung): > 100 µM | TGI (786-0 renal): > 100 µM | TGI (KM20L2 colon): > 100 µM | TGI (A549 NSCLC): > 100 µM | TGI (HCT-116 colon): > 100 µM | TGI (OVCAR-8 ovarian): > 100 µM | TGI (HOP-18 NSCLC): > 100 µM | TGI (CAKI-1 renal): > 100 µM | TGI (DMS 273 small cell lung): > 100 µM | TGI (DLD-1 colon): > 100 µM | TGI (NCI-H226 lung): > 100 µM | TGI (HCT-15 colon): > 100 µM | TGI (SNB-75 CNS): > 100 µM | TGI (UACC-62 melanoma): > 100 µM | TGI (OVCAR-3 ovarian): > 100 µM | TGI (OVCAR-5 ovarian): > 100 µM | TGI (SK-MEL-28 melanoma): > 100 µM | TGI (SW-620 colon): > 100 µM | TGI (EKVX NSCLC): > 100 µM | TGI (NCI-H522 lung): > 100 µM | TGI (A498 renal): > 100 µM | TGI (K-562 leukemia): > 100 µM | TGI (M19-MEL melanoma): > 100 µM | TGI (MOLT-4 leukemia): > 100 µM | TGI (HL-60(TB) leukemia): > 100 µM | TGI (SK-MEL-5 melanoma): > 100 µM | TGI (SF-539 CNS): > 100 µM | TGI (SNB-19 CNS): > 100 µM | TGI (RXF-631 renal): > 100 µM | TGI (LOX IMVI melanoma): > 100 µM | TGI (SK-MEL-2 melanoma): > 100 µM | TGI (SF-268 CNS): > 100 µM | TGI (ACHN renal): > 100 µM | TGI (SN12C renal): > 100 µM
